Measured values published in US6608189B1, “Fluorescent protein sensors for measuring the pH of a biological sample” (University of California, priority 1998, dated 2003).

Columns and labels:
[1] = test system: mitochondrial matrix of HeLa cells; assay: mitochondrial matrix pH with mito-YFP H148Q in HeLa cells; format: cell-based; conditions: 10 uM in high KCl titration buffer
Procedure: The YFP H148Q mutant has a pKa of about 7.4, which is intermediate between the pKa of EYFP and YFP mutant H148G. […] Fluorescence was measured over time (beginning at t≈0), including following the addition of 10 μM nigericin in high KCL titration buffer at t≈500 seconds.
Fluorescence decreased to about 175 units at t=1000 seconds by addition of nigericin, which lowered the pH to about 6.9. Fluorescence then returned stepwise to 400 units with each change of the extracellular medium.

[2] = test system: mitochondria of HeLa cells; assay: GFP T203I as pH-insensitive reference in mitochondria of HeLa cells; format: cell-based; conditions: control experiments
Procedure: To identify a GFP sensor protein suitable for use as a reference protein for measuring mitochondrial matrix pH, the GFP mutant T203I was expressed in the mitochondria of HeLa cells.
Fluorescence of HeLa cells transfected with the GFP T203I mutant was monitored for about 400 seconds using an excitation ratio of 480 nm/400 nm. 10 μM CCCP was then added to the cells, and fluorescence was monitored for an additional 250 seconds. […] In control experiments, it was observed that addition of CCCP corresponded to a drop in pH of about 1 unit. Thus, the GFP T203I mutant is suitable for use as a reference, pH-insensitive mutant.

[3] = test system: mitochondrial matrix of chick skeletal myotubes; assay: mitochondrial matrix pH with mito-YFP H148G in chick skeletal myotubes; format: cell-based; conditions: 2 uM, t about 1400 seconds
Description: Fluorescence was also examined, and pH measured, in primary cultures of chick skeletal myotubes transfected with the mito-YFP H148G mutant. […] Thereafter fluorescence continued to be observed during calibration at ph 6.9, 7.6 and 8.0.

[4] = test system: mitochondrial matrix of HeLa cells; assay: mitochondrial matrix pH with mito-YFP H148G in HeLa cells; format: cell-based; conditions: 5 uM
Procedure: YFP H148G expression was monitored by observing fluorescence over time. Mitochondrial pH was also monitored by pH titration as described in Example 3 using nigericin and monensin.
5 μM CCCp was added at about t≈300 seconds. […] Then a calibration was performed by perfusing the cells with extracellular medium of pH 7, 7.5, 8, and 8.35 containing the ionophores nigericin plus monensin to equilibrate mitochondrial pH and extracellular pH. Fluorescence in mitochondria increased stepwise with each change of extracellular pH.

[5] = test system: mitochondrial matrix of HeLa cells; assay: pH in the mitochondrial matrix with EYFP-mito; format: cell-based; conditions: HeLa cells expressing EYFP-mito
Procedure: To measure pH in the mitochondrial matrix using mutant GFP sensor proteins, HeLa cells and neonatal rat cardiomyocytes were transfected with the fluorescent protein pH sensor EYFP-mito. A Bio-Rad MRC-1000 confocal microscope was used for analysis of the targeted protein. […] In situ pH titration was performed with nigericin/monensin as described in Example 3.

HeLa cells = assay: pH in cytosol and nucleus of cells expressing EYFP; format: cell-based; conditions: reversible on wash-out
Procedure: HeLa cells and AT-20 cells grown on glass coverslips were transiently lipo-transfected (Lipofectin™, GIBCO) with polynucleotide constructs encoding EYFP.
(§1) Cells were imaged between 2 and 4 days after transfection at 22° C. with a cooled charge-coupled device camera (Photometrices, Tucson, Ariz.) as described in Miyawaki et al., Nature 388:882, (1997). The interference filters (Omega Optical and Chroma Technology, Brattleboro, Vt.) used for excitation and emission were 440 ECFP; 480 535 EGFP or EYFP. The dichroic mirrors were 455 DCLP for ECFP and 505 DCLP for EGFP or EYFP. Regions of interest were selected manually, and pixel intensities were spatially averaged after background subtraction. A binning of 2 was used to improve signal/noise and minimize photodamage and photoisomerization of EYFP. High KCl buffer plus 5 μM each of the ionophores nigericin (Fluka) and monensin (Calbiochem) was used for in situ titrations in living cells. Cells were loaded with cytosolic pH indicators by incubation with 3 μM carboxy-SNARF/AM or BCECF/AM (Molecular Probes) for 45 minutes, then washed for 30 minutes, all at 22° C.
Calibration of fluorescence intensity with pH in situ was accomplished with a mix of the alkali cation/H+ ionophores nigericin and monensin in bath solutions of defined pH and high K+. Fluorescence equilibrated within 1-4 minutes after each exchange of solution.

[6] = target: YFP (yellow fluorescent protein; GFP quadruple mutant T203Y/S65G/V68L/S72A, also carrying Q80R) (Aequorea victoria) [GFP: P42212]; assay: X-ray crystal structure of YFP, largest contact area with an adjacent molecule
[7] = test system: Golgi lumen of HeLa cells; assay: ratiometric Golgi pH with GT-EYFP and GT-ECFP; format: cell-based; conditions: cotransfected HeLa cells
Description: Quantitative measurements of fluorescence with nonratiometric indicators can suffer from artifacts as a result of cell movement or focusing. To correct for these effects, the cyan-emitting mutant GT-ECFP was co-transfected into cells along with GT-EYFP. ECFP has excitation and emission peaks that can be separated from those of EYFP by appropriate filters. In addition, ECFP is less pH-sensitive than EYFP (see FIG. 2B).
Although the ratio of EYFP to ECFP emission varied between cells, probably reflecting a different concentration of GT-EYFP and GT-ECFP in the Golgi lumen, it changed with pH as expected (FIG. 3B). Bafilomcin A1 raised the GT-EYFP/GT-ECFP emission ratio, i.e, it raised pHG.

macrophage phagosomes = conditions: cited from earlier work
[8] = test system: Golgi lumen of HeLa cells; assay: pH in the Golgi lumen with GT-EYFP; format: cell-based; conditions: HeLa cells expressing GT-EYFP
Procedure: as §1
The pH of the Golgi lumen was measured by transfecting HeLa or AT-20 cells with the constructs GT-ECFP, GT-EGFP, or GT-EYFP. Bright juxtanuclear fluorescence was observed, with little increase in diffuse staining above autofluorescnce in most cells.
The pH gradient across the Golgi membrane is maintained by the electrogenic ATP-dependent H^+ pump (V-ATPase). The V-ATPase generates a ΔpH (acidic inside) and Δψ(positive inside), which opposes further H^+ transport. The movement of counter-ions, Cl^− in (or K^+ out), with H^+ uptake would shunt the Δψ, allowing a larger ΔpH to be generated. These mechanisms were investigated in intact single HeLa cells transfected with GT-EYFP.

With `CO[C@@H]1C[C@@H](C[C@H]2CC[C@H](C)[C@H]([C@@H](C)C(=O)O)O2)O[C@]2(O[C@](C)([C@H]3CC[C@@](C)([C@@H]4O[C@@H]([C@H]5O[C@@](O)(CO)[C@H](C)C[C@@H]5C)C[C@@H]4C)O3)C[C@H]2C)[C@@H]1C` [nigericin] the “mitochondrial pH after addition” value [1] was “about 6.9”.

With `N#CC(C#N)=NNc1cccc(Cl)c1` [CCCP, carbonylcyanide m-chlorophenylhydrazone] the “drop in pH on addition” value [2] was “about 1 unit”, the “mitochondrial pH after addition” value [3] was 6.9 and the “mitochondrial pH after addition” value [4] was 7.0. For the same compound, the “mitochondrial pH after acidification by the protonophore” value [5] was about 7.

For `CC(O)C(=O)O` (stereo not shown) [lactate], the “change of EYFP fluorescence (pH) on perfusion” value (HeLa cells) was “decrease in fluorescence”.

“YFP (yellow fluorescent protein; GFP quadruple mutant T203Y/S65G/V68L/S72A, also carrying Q80R) (from UniProt P42212 1-238)” showed a contact area on one monomer surface [6] of 722 Å2.

With `Cl.N` [NH4Cl] the “change of EYFP fluorescence (pH) on perfusion” value (HeLa cells) was “increase in fluorescence”.

In the case of `CO/C1=C\C(C)=C\[C@@H](C)[C@@H](O)[C@@H](C)C/C(C)=C/C=C/[C@H](OC)[C@@H]([C@@H](C)[C@@H](O)[C@H](C)[C@@]2(O)C[C@@H](O)[C@H](C)[C@@H](C(C)C)O2)OC1=O` [bafilomycin A1], the “GT-EYFP/GT-ECFP emission ratio (pHG)” value [7] is given as “raised”, the “rate of alkalinization reported for other acidic compartments” value (macrophage phagosomes) is given as 0.09 pH/min and the “increase of pHG” value ([8]; 0.2 uM) is given as “about 0.6 units”. The pHG after treatment ([8]; 0.2 uM, n=12 cells) was 7.16 and the “initial rate of Golgi alkalinization” value ([8]; n=12 cells) was 0.52 pH units per minute.
